Active and inactive are the calls of the source. The calls are words filed in the database; no cut-off is given here.
How the values were obtained:
[1] = target: T1, Neuropeptide Y receptor type 5 (Homo sapiens, UniProt Q15761); test: Binding affinity to human NPY Y5 receptor transfected in mouse LMtk cells; type: cell-based
T1 sequence (Q15761 whole entry): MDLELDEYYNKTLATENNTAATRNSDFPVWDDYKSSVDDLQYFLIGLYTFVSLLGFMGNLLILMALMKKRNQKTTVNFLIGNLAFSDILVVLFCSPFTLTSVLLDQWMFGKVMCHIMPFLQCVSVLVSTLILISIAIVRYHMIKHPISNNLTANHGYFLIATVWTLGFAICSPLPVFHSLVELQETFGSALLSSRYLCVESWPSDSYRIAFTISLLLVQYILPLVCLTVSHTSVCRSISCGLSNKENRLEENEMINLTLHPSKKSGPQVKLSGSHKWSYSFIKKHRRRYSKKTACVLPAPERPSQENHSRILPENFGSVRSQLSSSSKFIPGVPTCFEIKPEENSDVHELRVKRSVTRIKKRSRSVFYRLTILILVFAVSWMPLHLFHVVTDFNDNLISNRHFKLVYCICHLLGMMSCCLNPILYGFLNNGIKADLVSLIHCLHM

[2] = target: T2, Neuropeptide Y receptor type 1 (Homo sapiens, UniProt P25929); test: Binding affinity to NPY Y1 receptor
T2 sequence (P25929 whole entry): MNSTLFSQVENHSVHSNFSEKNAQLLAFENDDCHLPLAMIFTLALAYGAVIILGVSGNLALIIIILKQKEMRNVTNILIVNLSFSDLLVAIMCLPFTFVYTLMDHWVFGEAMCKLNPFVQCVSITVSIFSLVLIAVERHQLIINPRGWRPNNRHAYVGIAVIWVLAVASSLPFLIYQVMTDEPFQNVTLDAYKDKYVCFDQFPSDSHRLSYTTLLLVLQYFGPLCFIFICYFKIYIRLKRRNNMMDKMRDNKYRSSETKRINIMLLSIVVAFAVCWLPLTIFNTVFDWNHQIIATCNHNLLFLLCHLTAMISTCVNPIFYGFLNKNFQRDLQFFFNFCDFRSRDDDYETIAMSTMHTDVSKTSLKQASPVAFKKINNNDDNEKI

[3] = target: T3, Neuropeptide Y receptor type 2 (Homo sapiens, UniProt P49146); test: Binding affinity to NPY Y2 receptor
T3 sequence (P49146 whole entry): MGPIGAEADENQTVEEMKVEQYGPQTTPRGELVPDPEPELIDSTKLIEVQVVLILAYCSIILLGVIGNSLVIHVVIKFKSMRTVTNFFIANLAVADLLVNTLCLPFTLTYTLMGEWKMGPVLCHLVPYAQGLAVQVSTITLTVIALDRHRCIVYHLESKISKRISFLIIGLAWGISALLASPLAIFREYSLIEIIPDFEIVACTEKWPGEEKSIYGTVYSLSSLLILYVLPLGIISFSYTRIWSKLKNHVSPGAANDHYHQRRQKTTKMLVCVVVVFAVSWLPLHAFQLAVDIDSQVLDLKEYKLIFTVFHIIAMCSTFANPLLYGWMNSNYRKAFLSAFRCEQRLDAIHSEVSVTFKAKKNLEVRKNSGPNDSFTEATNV

[4] = target: Neuropeptide Y receptor type 4 (Homo sapiens, UniProt P50391); test: Binding affinity to NPY Y4 receptor
[5] = target: T1, Neuropeptide Y receptor type 5; test: Antagonist activity at human NPY Y5 receptor transfected in mouse LMtk cells assessed as inhibition of neuropeptide Y-induced increase in […] Ca2+ level; type: functional, cell-based
Rattus norvegicus [6] = test: Plasma concentration in rat at 10 mg/kg, po after 2 hrs; type: ADME, organism-based; set-up: dose 10 mg/kg, route oral
Rattus norvegicus [7] = test: Plasma concentration in rat at 10 mg/kg, po after 4 hrs; type: ADME, organism-based; set-up: dose 10 mg/kg, route oral
Rattus norvegicus [8] = test: Suppression of intracerebroventricular injected D-trp34NPY-induced food intake in SD rat at 10 mg/kg, po administered 2 hrs prior to ICV injection measured after 2 hrs of D-trp34NPY challenge; type: functional, organism-based; set-up: dose 10 mg/kg
in vivo = settings: rat, brain and plasma, po, 10 mg/kg
Description: Ratio of drug level in brain to plasma in rat at 10 mg/kg, po after 2 hrs

Sequence of Neuropeptide Y receptor type 4 (P50391 whole entry): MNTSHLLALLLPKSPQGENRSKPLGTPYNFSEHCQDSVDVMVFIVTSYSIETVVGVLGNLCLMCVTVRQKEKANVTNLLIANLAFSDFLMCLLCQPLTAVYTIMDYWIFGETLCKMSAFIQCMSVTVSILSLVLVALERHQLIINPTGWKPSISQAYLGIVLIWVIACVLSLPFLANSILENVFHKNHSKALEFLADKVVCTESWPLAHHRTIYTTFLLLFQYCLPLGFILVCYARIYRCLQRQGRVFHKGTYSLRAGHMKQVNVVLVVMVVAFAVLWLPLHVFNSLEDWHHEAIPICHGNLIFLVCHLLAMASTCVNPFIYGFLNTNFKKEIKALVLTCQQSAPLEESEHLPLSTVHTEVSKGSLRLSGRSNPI

Row | IC50 [1] | SMILES | other results
1 | 20 nM | CNC(=O)c1ccc2nc(N3CCC4(CC3)OC(=O)c3ccccc34)[nH]c2c1 | 
2 | 4.8 nM | O=C1OC2(CCN(c3nc4cc(F)c(F)cc4[nH]3)CC2)c2ccccc21 | 
3 | 130 nM | CC(=O)Nc1ccc2nc(N3CCC4(CC3)OC(=O)c3ccccc34)[nH]c2c1 | 
4 | 6.6 nM | O=C1OC2(CCN(c3nc4cc(Cl)ccc4[nH]3)CC2)c2ccccc21 | IC50 [2]: > 10000 nM; IC50 [3]: > 10000 nM; IC50 [4]: > 10000 nM; IC50 [5]: 1.2 nM; Concentration (Rattus norvegicus [6]): 27.8 µM; plasma concentration (Rattus norvegicus [7]): 25.6 µM
5 | 36 nM | Cc1ccc2[nH]c(N3CCC4(CC3)OC(=O)c3ccccc34)nc2c1 | 
6 | 2 nM | CCOC(=O)c1ccc2nc(N3CCC4(CC3)OC(=O)c3ccccc34)[nH]c2c1 | 
7 | 500 nM | O=C1OC2(CCN(c3nc4c(F)cccc4[nH]3)CC2)c2ccccc21 | 
8 | 3.5 nM | O=C1OC2(CCN(c3nc4cc(C(F)(F)F)ccc4[nH]3)CC2)c2ccccc21 | IC50 [2]: > 10000 nM; IC50 [3]: > 10000 nM; IC50 [4]: > 10000 nM; IC50 [5]: 6.4 nM; Concentration (Rattus norvegicus [6]): 15.3 µM; plasma concentration (Rattus norvegicus [7]): 17.5 µM; Activity (Rattus norvegicus [8]): Active; Kp at 2 h (in vivo): 0.31
9 | 83 nM | O=C1OC2(CCN(c3nc4cccc(C(F)(F)F)c4[nH]3)CC2)c2ccccc21 | 
10 | 2.7 nM | COC(=O)c1ccc2[nH]c(N3CCC4(CC3)OC(=O)c3ccccc34)nc2c1 | IC50 [2]: > 10000 nM; IC50 [3]: > 10000 nM; IC50 [4]: > 10000 nM; IC50 [5]: 1.5 nM; Concentration (Rattus norvegicus [6]): 3.2 µM; plasma concentration (Rattus norvegicus [7]): 0.1 µM; Kp at 2 h (in vivo): 0.08
11 | 1400 nM | O=C1O[C@]2(CC[C@@H](c3nc4cccnc4[nH]3)CC2)c2ccccc21 | 
12 | 9.2 nM | Cc1cc2nc(N3CCC4(CC3)OC(=O)c3ccccc34)[nH]c2cc1C | 
13 | 58 nM | CN(C)C(=O)c1ccc2nc(N3CCC4(CC3)OC(=O)c3ccccc34)[nH]c2c1 | 
14 | 5.7 nM | O=C1OC2(CCN(c3nc4cc(Cl)cc(Cl)c4[nH]3)CC2)c2ccccc21 | 
15 | 6.7 nM | O=C1OC2(CCN(c3nc4cc(Cl)c(F)cc4[nH]3)CC2)c2ccccc21 | 
16 | 85 nM | CS(=O)(=O)c1ccc2[nH]c(N3CCC4(CC3)OC(=O)c3ccccc34)nc2c1 | 
17 | 10 nM | O=C1OC2(CCN(c3nc4ccc(Br)cc4[nH]3)CC2)c2ccccc21 | 
18 | 9.3 nM | O=C1OC2(CCN(c3nc4cc5c(cc4[nH]3)OCO5)CC2)c2ccccc21 | 
19 | 10 nM | O=C1OC2(CCN(c3nc4ccc([N+](=O)[O-])cc4[nH]3)CC2)c2ccccc21 | 

Row | IC50 [1] | SMILES | other results
20 | 1.8 nM | CC(C)Cc1ccc2nc(N3CCC4(CC3)OC(=O)c3ccccc34)[nH]c2c1 | 
21 | > 1000 nM | O=C(O)c1ccc2[nH]c(N3CCC4(CC3)OC(=O)c3ccccc34)nc2c1 | 
22 | 2.2 nM | O=C1OC2(CCN(c3nc4cc5c(cc4[nH]3)OC(F)(F)O5)CC2)c2ccccc21 | 
23 | 2.4 nM | O=C1OC2(CCN(c3nc4cc(-c5ccccc5)ccc4[nH]3)CC2)c2ccccc21 | IC50 [2]: > 10000 nM; IC50 [3]: > 10000 nM; IC50 [4]: > 10000 nM; IC50 [5]: 1.8 nM; Concentration (Rattus norvegicus [6]): 1.8 µM; plasma concentration (Rattus norvegicus [7]): 1.3 µM; Kp at 2 h (in vivo): 0.35
24 | 19 nM | N#Cc1ccc2[nH]c(N3CCC4(CC3)OC(=O)c3ccccc34)nc2c1 | 
25 | 91 nM | O=C1O[C@]2(CC[C@H](c3nc4ncccc4[nH]3)CC2)c2ccccc21 | 
26 | 1.6 nM | O=C1OC2(CCN(c3nc4cc(Cl)c(Cl)cc4[nH]3)CC2)c2ccccc21 | IC50 [2]: > 10000 nM; IC50 [3]: > 10000 nM; IC50 [4]: > 10000 nM; IC50 [5]: 1.4 nM; Concentration (Rattus norvegicus [6]): 2.9 µM; plasma concentration (Rattus norvegicus [7]): 4.6 µM
27 | > 10000 nM | O=C1OC2(CCN(c3nc4ccccc4s3)CC2)c2ccccc21 | 
28 | 17 nM | O=C1OC2(CCN(c3nc4c(-c5ccccc5)cccc4[nH]3)CC2)c2ccccc21 | 
29 | > 1000 nM | CS(=O)(=O)N1CC2(CCN(c3nc4ccccc4[nH]3)CC2)c2ccccc21 | 
30 | 1600 nM | O=C1OC2(CCN(c3nc4cccnc4[nH]3)CC2)c2ccccc21 | 
31 | 110 nM | NC(=O)c1ccc2nc(N3CCC4(CC3)OC(=O)c3ccccc34)[nH]c2c1 | 
32 | 28 nM | O=C1OC2(CCN(c3nc4cc(F)ccc4[nH]3)CC2)c2ccccc21 | 
33 | 74 nM | Cc1cccc2[nH]c(N3CCC4(CC3)OC(=O)c3ccccc34)nc12 | 
34 | 250 nM | COc1cccc2[nH]c(N3CCC4(CC3)OC(=O)c3ccccc34)nc12 | 
35 | 37 nM | COc1ccc2[nH]c(N3CCC4(CC3)OC(=O)c3ccccc34)nc2c1 | 
36 | 56 nM | CS(=O)(=O)Nc1ccc2nc(N3CCC4(CC3)OC(=O)c3ccccc34)[nH]c2c1 | 
37 | 140 nM | O=C1OC2(CCN(c3nc4ccccc4[nH]3)CC2)c2ccccc21 | 
38 | 51 nM | O=C1OC2(CCN(c3nc4cccc(Cl)c4[nH]3)CC2)c2ccccc21 | 

Row | SMILES | IC50 [1] | other results
39 | O=C1OC2(CCN(Cc3nc4ccccc4[nH]3)CC2)c2ccccc21 | 4900 nM | 
